Reference: patent US11247972B2, “Compositions and methods for treating toxoplasmosis, cryptosporidiosis, and other apicomplexan protozoan related diseases” (University of Washington through its Center for …, priority 2010, dated 2022)

How the values were obtained:
PfCDPK4 = PfCDPK4 (Plasmodium falciparum (isolate 3D7), UniProt Q8IBS5); test: biochemical; conditions: read-out: PfCDPK4 (% inhibition @ 3 uM)
PfCDPK1 = PfCDPK1 (Plasmodium falciparum (isolate 3D7), UniProt P62344); test: biochemical; conditions: read-out: PfCDPK1 (% inhibition @ 3 uM)

Compound	inhibition at 3 µM (PfCDPK4) [%]	inhibition at 3 µM (PfCDPK1) [%]
CC(C)Oc1ccc2cc(-c3nn(C(C)C)c4ncnc(N)c34)ccc2c1 [Compound 11, 3-(6-isopropoxynaphthalen-2-yl)-1-isopropyl-1H-pyrazolo[3,4-d]pyrimidin-4-amine]	87	93
COc1cc(COc2cccc(-c3nn(C(C)C)c4ncnc(N)c34)c2)cc(OC)c1 [Compound 22, 3-(3-(3,5-dimethoxybenzyloxy)phenyl)-1-isopropyl-1H-pyrazolo[3,4-d]pyrimidin-4-amine]	9	71
Nc1ncnc2c1c(Cc1cccc3ccccc13)nn2C1CCNCC1 [Compound 5g, 3-(naphthalen-1-ylmethyl)-1-(piperidin-4-yl)-1H-pyrazolo[3,4-d]pyrimidin-4-amine]	75	56
CC(C)COc1ccc2cc(-c3nn(CC4CCNCC4)c4ncnc(N)c34)ccc2c1 [Compound 44, 3-(6-isobutoxynaphthalen-2-yl)-1-(piperidin-4-ylmethyl)-1H-pyrazolo[3,4-d]pyrimidin-4-amine]	97	100
COc1cc2ccccc2cc1-c1nn(C(C)C)c2ncnc(N)c12 [Compound 7s, 1-isopropyl-3-(3-methoxynaphthalen-2-yl)-1H-pyrazolo[3,4-d]pyrimidin-4-amine]	20	53
CC(C)n1nc(-c2ccc3cc(OC(=O)c4cccc(Cl)c4)ccc3c2)c2c(N)ncnc21 [Compound 85]	72	99
CC(C)C(=O)Nc1ccc(-c2nn(C(C)(C)C)c3ncnc(N)c23)cc1 [Compound 59, N-(4-(4-amino-1-tert-butyl-1H-pyrazolo[3,4-d]pyrimidin-3-yl)phenyl)isobutyramide]	79	98
CCOc1ccc2cc(-c3nc(C(C)C)n4ccnc(N)c34)ccc2c1 [Compound 10, 1-(6-ethoxynaphthalen-2-yl)-3-isopropylimidazo[1,5-a]pyrazin-8-amine]	94	93
CC(C)n1nc(Cc2cccc3ccccc23)c2c(N)ncnc21 [Compound 3, 1-isopropyl-3-(naphthalen-1-ylmethyl)-1H-pyrazolo[3,4-d]pyrimidin-4-amine]	76	78
O=C(NCCC1CCNCC1)Nc1nc2ccc(C(=O)c3ccccc3)cc2[nH]1 [Compound 126]	65	76
Cc1ccc(C)c(COc2ccc3cc(-c4nn(C(C)C)c5ncnc(N)c45)ccc3c2)c1 [Compound 48, 3-(6-(2,5-dimethylbenzyloxy)naphthalen-2-yl)-1-isopropyl-1H-pyrazolo[3,4-d]pyrimidin-4-amine]	10	84
CC(=O)N1CCC(Cn2nc(Cc3cccc4ccccc34)c3c(N)ncnc32)CC1 [Compound 5k, 1-(4-((4-amino-3-(naphthalen-1-ylmethyl)-1H-pyrazolo[3,4-d]pyrimidin-1-yl)methyl)piperidin-1-yl)ethanone]	28	69
Nc1ncnc2c1c(-c1ccc3ccccc3c1)nn2CC1CCNCC1 [Compound 147, 3-(naphthalen-2-yl)-1-(piperidin-4-ylmethyl)-1H-pyrazolo[3,4-d]pyrimidin-4-amine]	99	100
CC(C)c1cccc(-c2nn(C(C)C)c3ncnc(N)c23)c1 [Compound 7e, 1-isopropyl-3-(3-isopropylphenyl)-1H-pyrazolo[3,4-d]pyrimidin-4-amine]	52	74
CC(C)(C)n1nc(-c2ccc3oc(-c4ccccc4)nc3c2)c2c(N)ncnc21 [Compound 131]	38	100
CC(C)COc1ccc2cc(-c3nn(CC4CCN(C)CC4)c4ncnc(N)c34)ccc2c1 [Compound 124]	93	98
Cc1ccc(-c2nn(C(C)C)c3ncnc(N)c23)cc1C [Compound 7h, 3-(3,4-dimethylphenyl)-1-isopropyl-1H-pyrazolo[3,4-d]pyrimidin-4-amine]	85	83
COc1ccc2cc(-c3nn(CC4CCNCC4)c4ncnc(N)c34)ccc2c1 [Compound 28, 3-(6-methoxynaphthalen-2-yl)-1-(piperidin-4-ylmethyl)-1H-pyrazolo[3,4-d]pyrimidin-4-amine]	99	92
CC(C)(C)n1nc(-c2ccc(NC(=O)CCl)cc2)c2c(N)ncnc21 [Compound 58, N-(4-(4-amino-1-tert-butyl-1H-pyrazolo[3,4-d]pyrimidin-3-yl)phenyl)-2-chloroacetamide]	50	97
CC(C)n1nc(-c2ccc3cc(OCc4ccccc4)ccc3c2)c2c(N)ncnc21 [Compound 40, 3-(6-(benzyloxy)naphthalen-2-yl)-1-isopropyl-1H-pyrazolo[3,4-d]pyrimidin-4-amine]	84	101
Cn1ncc2cc(-c3nn(C(C)(C)C)c4ncnc(N)c34)ccc21 [Compound 142]	97	98

Compound	inhibition at 3 µM (PfCDPK4) [%]	inhibition at 3 µM (PfCDPK1) [%]
Nc1ncnc2c1c(-c1ccc(-c3nn(CC4CCNCC4)c4ncnc(N)c34)cc1)nn2CC1CCNCC1 [Compound 101]	14	79
CS(=O)(=O)N1CCC(CCn2nc(Cc3cccc4ccccc34)c3c(N)ncnc32)CC1 [Compound 5r, 1-(2-(1-(methylsulfonyl)piperidin-4-yl)ethyl)-3-(naphthalen-1-ylmethyl)-1H-pyrazolo[3,4-d]pyrimidin-4-amine]	22	55
C=CCOc1ccc2cc(-c3nn(C(C)C)c4ncnc(N)c34)ccc2c1 [Compound 41, 3-(6-(allyloxy)naphthalen-2-yl)-1-isopropyl-1H-pyrazolo[3,4-d]pyrimidin-4-amine]	98	101
CCCC(=O)Nc1ccc(-c2nn(C(C)(C)C)c3ncnc(N)c23)cc1 [Compound 61, N-(4-(4-amino-1-tert-butyl-1H-pyrazolo[3,4-d]pyrimidin-3-yl)phenyl)butyramide]	80	101
CCOc1ccc2cc(-c3nn(C(C)(C)C)c4ncnc(N)c34)ccc2c1 [Compound 137]	95	95
COc1ccc(-c2nn(C(C)(C)C)c3ncnc(N)c23)cc1C [Compound 132]	96	96
CC(C)n1nc(-c2cccc(-c3ccccc3)c2)c2c(N)ncnc21 [Compound 7z, 3-(biphenyl-3-yl)-1-isopropyl-1H-pyrazolo[3,4-d]pyrimidin-4-amine]	21	79
CC(C)n1nc(-c2ccc3cc(OCc4ccncc4)ccc3c2)c2c(N)ncnc21 [Compound 55, 1-isopropyl-3-(6-(pyridin-4-ylmethoxy)naphthalen-2-yl)-1H-pyrazolo[3,4-d]pyrimidin-4-amine]	94	100
CC(C)(C)OC(=O)NCCC(=O)Nc1nc2ccc(C(=O)c3ccccc3)cc2[nH]1 [Compound 93]	49	64
CC(C)c1nc(-c2ccc3ccccc3c2)c2c(N)nccn12 [Compound 8, 3-isopropyl-1-(naphthalen-2-yl)imidazo[1,5-a]pyrazin-8-amine]	92	92
Nc1ncnc2c1c(-c1ccc3cc(OCc4ccc(Cl)cc4)ccc3c1)nn2CC1CCNCC1 [Compound 39, 3-(6-(4-chlorobenzyloxy)naphthalen-2-yl)-1-(piperidin-4-ylmethyl)-1H-pyrazolo[3,4-d]pyrimidin-4-amine]	98	102
CCCCOc1ccc2cc(-c3nn(C(C)C)c4ncnc(N)c34)ccc2c1 [Compound 42, 3-(6-butoxynaphthalen-2-yl)-1-isopropyl-1H-pyrazolo[3,4-d]pyrimidin-4-amine]	94	101
COc1ccc(-c2nn(C(C)C)c3ncnc(N)c23)cc1OC(C)C [Compound 23, 3-(3-isopropoxy-4-methoxyphenyl)-1-isopropyl-1H-pyrazolo[3,4-d]pyrimidin-4-amine]	11	75
CC(C)n1nc(-c2ccc3cc(OCc4ccc(C(C)(C)C)cc4)ccc3c2)c2c(N)ncnc21 [Compound 54, 3-(6-(4-tert-butylbenzyloxy)naphthalen-2-yl)-1-isopropyl-1H-pyrazolo[3,4-d]pyrimidin-4-amine]	77	101
COc1ccc(-c2nn(CC3CCNCC3)c3ncnc(N)c23)cc1C [Compound 144]	94	95
CCOc1ccc2cc(-c3nn(C(C)C)c4ncnc(N)c34)ccc2c1 [Compound 7r, 3-(6-ethoxynaphthalen-2-yl)-1-isopropyl-1H-pyrazolo[3,4-d]pyrimidin-4-amine]	99	94
CC(Oc1ccc2cc(-c3nn(C(C)C)c4ncnc(N)c34)ccc2c1)c1ccccc1 (stereo not shown) [Compound 53, 1-isopropyl-3-(6-(1-phenylethoxy)naphthalen-2-yl)-1H-pyrazolo[3,4-d]pyrimidin-4-amine]	57	98
Nc1ncnc2c1c(Cc1cccc3ccccc13)nn2CCC1CCNCC1 [Compound 5i, 3-(naphthalen-1-ylmethyl)-1-(2-(piperidin-4-yl)ethyl)-1H-pyrazolo[3,4-d]pyrimidin-4-amine]	80	58
Nc1ncnc2c1c(-c1ccccc1)nn2CC1CCNCC1 [Compound 145]	63	93
CC(C)(C)C(=O)Nc1ccc(-c2nn(C(C)(C)C)c3ncnc(N)c23)cc1 [Compound 60, N-(4-(4-amino-1-tert-butyl-1H-pyrazolo[3,4-d]pyrimidin-3-yl)phenyl)pivalamide]	85	98
